For 14 molecules, IC50 results are on record in patent publication US8822468B2 (Novartis AG, priority 2008, dated 2014).

The target of this experiment is T1, cMET receptor tyrosine kinase (GST-cMET (969-1390)) (Homo sapiens, UniProt P08581).
T1 construct: made in house
T1 sequence (P08581 969-1390): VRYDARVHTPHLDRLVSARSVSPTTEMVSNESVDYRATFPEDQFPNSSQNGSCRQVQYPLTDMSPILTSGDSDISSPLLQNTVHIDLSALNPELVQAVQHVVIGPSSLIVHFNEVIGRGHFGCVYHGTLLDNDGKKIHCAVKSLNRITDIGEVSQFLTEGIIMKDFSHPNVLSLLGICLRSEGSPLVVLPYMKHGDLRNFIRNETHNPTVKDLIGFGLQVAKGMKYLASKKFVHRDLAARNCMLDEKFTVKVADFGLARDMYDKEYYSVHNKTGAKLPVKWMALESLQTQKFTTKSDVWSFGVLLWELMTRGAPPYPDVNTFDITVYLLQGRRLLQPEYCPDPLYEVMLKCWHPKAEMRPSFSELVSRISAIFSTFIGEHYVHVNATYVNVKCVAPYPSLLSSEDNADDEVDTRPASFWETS
Put plainly: EPK cMET profiling assay (LanthaScreen TR-FRET antibody based kinase phosphorylation assay). Type of experiment: biochemical. The note with it: purified recombinant GST-cMET (969-1390), 2 μM ATP, 50 nM Fluorescein-PolyEAY, 60 minutes at room temperature; read-out: c-Met IC50. The protocol:
A number of compounds of the present invention were assayed in an antibody based kinase phosphorylation assay as follows.
EPK cMET Profiling Assay:
The EPK kinase assay for cMET receptor tyrosine kinase was developed, using the purified recombinant GST-fusion protein, containing the cytoplasmic domain of the enzyme. GST-cMET (969-1390) was purified by affinity chromatography.
The kinase assay is based on the LanthaScreen™ technology. LanthaScreen™ is the detection of Time-Resolved Fluorescence Resonance Energy Transfer (TR-FRET) using lanthanide chelates to measure interactions between various binding partners. In a TR-FRET kinase assay, a long-lifetime lanthanide donor species is conjugated to an antibody that specifically binds to a phosphorylated product of a kinase reaction that is labeled with a suitable acceptor fluorophore. This antibody-mediated interaction brings the lanthanide donor and the acceptor into proximity such that resonance energy transfer can take place, resulting in a detectible increase in the FRET signal.
The kinase reactions were performed in 384 well microtiter plates in a total reaction volume of 9.05 μL. The assay plates were prepared with 0.05 μL per well of test compound in the appropriate test concentration, as described under “preparation of compound dilutions”. The reactions were started by combining 4.5 μL of ATP solution with 4.5 μL of enzyme-substrate mix (consisting of kinase and substrate). The final concentrations in the kinase reactions were 35 mM Tris/HCl, 1 mM DTT, 0.025% Tween20, 10 μM sodium orthovanadate, 0.25% BSA, 0.6% DMSO, 10 mM MgCl2, 3 mM MnCl2, 2 μM ATP, 50 nM Fluorescein-PolyEAY, and 0.3 nM enzyme.
The reactions were incubated for 60 minutes at room temperature and stopped by adding 4.5 μL of stop buffer (50 mM EDTA, 0.04% NP40, 20 mM Tris/HCl).
Subsequently 4.5 μL of detection mix (50 mM Tris/HCl, 2 mM DTT, 0.05% Tween20, 20 μM sodium orthovanadate, 1% BSA, 1.72 μg/ml Tb-PY20 antibody) were added to the stopped reactions. After 30 minutes incubation at room temperature, the plates were measured in a BMG Pherastar fluorescence reader. The effect of compound on the enzymatic activity was in all assays obtained from the linear progress curves and determined from one reading (end point measurement).
Test compounds were dissolved in DMSO (10 mM) and transferred into 1.4 mL flat bottom or V-shaped Matrix tubes carrying a unique 2D matrix. The stock solutions were stored at −20° C. if not used immediately. For the test procedure the vials were defrosted and identified by a scanner whereby a working sheet was generated that guided the subsequent working steps.
Compound dilutions were made in 96 well plates. This format enabled the assay of maximally 40 individual test compounds at 8 concentrations (single points) including 4 reference compounds. The dilution protocol included the production of “pre-dilution plates”, “master plates” and “assay plates”.
Pre-dilution plates: 96 polypropylene well plates were used as pre-dilution plates. A total of 4 pre-dilution plates were prepared including 10 test compounds each on the plate positions A1-A10, one standard compound at A11 and one DMSO control at A12. All dilution steps were done on a HamiltonSTAR robot.
Master plates: 100 μL of individual compound dilutions including standard compound and controls of the 4 “pre-dilution plates” were transferred into a 384 “master plate” including the following concentrations 1,820, […], 182, 54.6, 18.2, 5.46, 1.82 and 0.546 μM, respectively in 90% of DMSO.
Assay plates: Identical “assay plates” were then prepared by pipetting 50 nL each of compound dilutions of the “master plates” into 384-well “assay plates” by means of a HummingBird 384-channel dispenser. These plates were used directly for the assay which was performed in a total volume of 9.05 μL. This led to a final compound concentration of 10, 3.0, 1.0, 0.3, 0.1, 0.03, 0.01 and 0.003 μM and a final DMSO concentration of 0.5% in the assay.
As to `Cn1cc(-c2ccc3ncc(C(O)c4ccc5ncccc5c4)n3n2)cn1` (racemic) [Example 1, (rac)-[6-(1-Methyl-1H-pyrazol-4-yl)-imidazo[1,2-b]pyridazin-3-yl]-quinolin-6-yl-methanol], the IC50 was determined as 140 nM.

Consider `COc1ccc(C(O)c2cnc3ccc(-c4cnn(C)c4)nn23)cc1` (racemic) [Example 3, (rac)-(4-Methoxy-phenyl)-[6-(1-methyl-1H-pyrazol-4-yl)-imidazo[1,2-b]pyridazin-3-yl]-methanol], for which the IC50 is 3950 nM.

Consider `Cn1cc(-c2ccc3ncc(C(O)c4ccc5nccn5c4)n3n2)cn1` (racemic) [Example 9, (rac)-Imidazo[1,2-a]pyridin-6-yl-[6-(1-methyl-1H-pyrazol-4-yl)-imidazo[1,2-b]pyridazin-3-yl]-methanol], for which the IC50 was 170 nM.

With `Cn1cc(-c2ccc3ncc(C(O)c4ccc5nccnc5c4)n3n2)cn1` (racemic) [Example 11, (rac)-[6-(1-Methyl-1H-pyrazol-4-yl)-imidazo[1,2-b]pyridazin-3-yl]-quinoxalin-6-yl-methanol], the IC50 was determined as 910 nM.

As to `CC(C)CNc1ccc2ncc(C(O)c3ccc4ncccc4c3)n2n1` (racemic) [Example 77, (rac)-(6-Isobutylamino-imidazo[1,2-b]pyridazin-3-yl)-quinolin-6-yl-methanol], the IC50 was found to be 225 nM.

For `CN(C(=O)OC(C)(C)C)C1CCN(c2ccc3ncc(Cc4ccc5ncccc5c4)n3n2)C1` (racemic) [Example 87, Methyl-[1-(3-quinolin-6-ylmethyl-imidazo[1,2-b]pyridazin-6-yl)-pyrrolidin-3-yl]-carbamic acid tert-butyl ester], the IC50 was 370 nM.

For `CNC1CCN(c2ccc3ncc(Cc4ccc5ncccc5c4)n3n2)C1` (racemic) [Example 119, (rac)-Methyl-[1-(3-quinolin-6-ylmethyl-imidazo[1,2-b]pyridazin-6-yl)-pyrrolidin-3-yl]-amine], the IC50 worked out at 42 nM.

As for `CC(c1ccc2c(c1)CCCN2)c1cnc2ccc(-c3cnn(C)c3)nn12` (racemic) [Example 156, (rac)-6-{1-[6-(1-Methyl-1H-pyrazol-4-yl)-imidazo[1,2-b]pyridazin-3-yl]-ethyl}-1,2,3,4-tetrahydroquinoline], the IC50 was found to be 190 nM.

Consider `CC(c1ccc2ncccc2c1)c1cnc2ccc(-c3cnn(C)c3)nn12` (racemic) [Example 157, (rac)-6-{1-[6-(1-Methyl-1H-pyrazol-4-yl)-imidazo[1,2-b]pyridazin-3-yl]-ethyl}-quinoline], for which the IC50 came to 7 nM.

On to `CC(c1cc2cn[nH]c2cc1F)c1cnc2ccc(-c3cnn(C)c3)nn12` (racemic) [Example 164, (rac)-3-[1-(6-Fluoro-1H-indazol-5-yl)-ethyl]-6-(1-methyl-1H-pyrazol-4-yl)-imidazo[1,2-b]pyridazine], for which the IC50 was 54 nM.

In the case of `Cn1cc(-c2ccc3ncc(C(C)(O)c4cc5cccnc5cc4F)n3n2)cn1` (racemic) [Example 174, (rac)-1-(7-Fluoro-quinolin-6-yl)-1-[6-(1-methyl-1H-pyrazol-4-yl)-imidazo[1,2-b]pyridazin-3-yl]-ethanol], the half-inhibitory concentration (IC50) stood at 120 nM.

On to `CC(c1ccc2ncccc2c1)c1cnc2ccc(-c3cnn(CCO)c3)nn12` (racemic) [Example 177, (rac)-2-{4-[3-(1-Quinolin-6-yl-ethyl)-imidazo[1,2-b]pyridazin-6-yl]-pyrazol-1-yl}-ethanol], for which the half-maximal inhibitory concentration (IC50) stood at 20 nM.

Consider `CC(c1c(F)cc2ncccc2c1F)c1cnc2ccc(-c3cnn(CCO)c3)nn12` (racemic) [Example 182, (rac)-2-(4-{3-[1-(5,7-Difluoro-quinolin-6-yl)-ethyl]-imidazo[1,2-b]pyridazin-6-yl}-pyrazol-1-yl)ethanol], for which the IC50 was found to be 3 nM.

For the molecule `CC(c1ccc2ncn(C)c2c1)c1cnc2ccc(-c3cnn(CCO)c3)nn12` (racemic) [Example 185, (rac)-2-(4-{3-[1-(3-Methyl-3H-benzoimidazol-5-yl)-ethyl]-imidazo[1,2-b]pyridazin-6-yl}-pyrazol-1-yl)-ethanol], the IC50 was 56 nM.
